ChEMBL document CHEMBL1201861, “Genomics of Drug Sensitity in Cancer screening data, Wellcome Trust Sanger Institute”
Values joined by “and” are separate entries in the source; they are usually repeats but may differ in a detail not shown here. Equal entries are not always repeated. Where a SMILES comes first, the peptide text is derived from it. The star is where a group is joined. Cbz = O=C(OCc1ccccc1)*

What was measured:
Assay in all cases: cells
Mo = assay type: functional, cell-based, Homo sapiens
Description: SANGER: Inhibition of human Mo-T cell growth in a cell viability assay.

KM12 = assay type: functional, cell-based, Homo sapiens;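 also: KM12 cell growth inhibition, read out with a cell viability assay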
Description: SANGER: Inhibition of human KM12 cell growth in a cell viability assay.

GOTO = assay type: functional, cell-based, Homo sapiens;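 also: growth inhibition of GOTO cells, read out by a cell viability assay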
Description: SANGER: Inhibition of human GOTO cell growth in a cell viability assay.

OVCAR-4 = assay type: functional, cell-based, Homo sapiens;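 also: growth inhibition of human OVCAR-4 cells, measured with a cell viability assay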
Description: SANGER: Inhibition of human OVCAR-4 cell growth in a cell viability assay.

PSN1 = assay type: functional, cell-based, Homo sapiens;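 also: suppression of growth of human PSN1 cells, read out by a cell viability assay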
Description: SANGER: Inhibition of human PSN1 cell growth in a cell viability assay.

NB69 = assay type: functional, cell-based, Homo sapiens;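 also: growth inhibition of NB69 cells, determined by a cell viability assay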
Description: SANGER: Inhibition of human NB69 cell growth in a cell viability assay.

KINGS-1 = assay type: functional, cell-based, Homo sapiens;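 also: cell viability assay measuring suppression of KINGS-1 cell growth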
Description: SANGER: Inhibition of human KINGS-1 cell growth in a cell viability assay.

LXF-289 cell line = assay type: functional, cell-based; details: Homo sapiens
Description: SANGER: Inhibition of human LXF-289 cell growth in a cell viability assay.

LB2518-MEL = assay type: functional, cell-based; details: Homo sapiens;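 also: growth inhibition of human LB2518-MEL cells, measured with a cell viability assay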
Description: SANGER: Inhibition of human LB2518-MEL cell growth in a cell viability assay.

IA-LM = assay type: functional, cell-based; details: Homo sapiens;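 also: cell viability assay measuring growth inhibition of human IA-LM cells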
Description: SANGER: Inhibition of human IA-LM cell growth in a cell viability assay.

ES7 = assay type: functional, cell-based, Homo sapiens;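 also: growth inhibition of cultured human ES7 cells, read out as cell viability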
Description: SANGER: Inhibition of human ES7 cell growth in a cell viability assay.

NCI-H226 = assay type: functional, cell-based, Homo sapiens;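 also: cell viability read-out used to gauge growth inhibition of the cells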
Description: SANGER: Inhibition of human NCI-H226 cell growth in a cell viability assay.

SNU-C2B = assay type: functional, cell-based; details: Homo sapiens;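 also: cell viability readout used to measure compound-driven suppression of SNU-C2B cell proliferation, IC50 marking half-maximal growth inhibition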
Description: SANGER: Inhibition of human SNU-C2B cell growth in a cell viability assay.

NCI-H446 = assay type: functional, cell-based, Homo sapiens;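 also: growth inhibition of NCI-H446 cells determined by a cell viability assay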
Description: SANGER: Inhibition of human NCI-H446 cell growth in a cell viability assay.

SBC-1 = assay type: functional, cell-based, Homo sapiens;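 also: cell viability assay measuring growth inhibition of the SBC-1 cell line, IC50 being the concentration that halves growth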
Description: SANGER: Inhibition of human SBC-1 cell growth in a cell viability assay.

NCI-H1650 = assay type: functional, cell-based, Homo sapiens;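 also: growth inhibition of human NCI-H1650 cells measured by a cell viability assay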
Description: SANGER: Inhibition of human NCI-H1650 cell growth in a cell viability assay.

ES1 = assay type: functional, cell-based, Homo sapiens;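 also: growth inhibition of ES1 cells, read out with a cell viability assay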
Description: SANGER: Inhibition of human ES1 cell growth in a cell viability assay.

LB2241-RCC = assay type: functional, cell-based, Homo sapiens;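 also: cell viability assay measuring how strongly the cultured human renal carcinoma line is prevented from growing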
Description: SANGER: Inhibition of human LB2241-RCC cell growth in a cell viability assay.

ES3 = assay type: functional, cell-based, Homo sapiens;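 also: growth inhibition of ES3 cells, read out with a cell viability assay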
Description: SANGER: Inhibition of human ES3 cell growth in a cell viability assay.

C2BBe1 = assay type: functional, cell-based, Homo sapiens;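 also: growth inhibition of C2BBe1 cells, read out through a viability assay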
Description: SANGER: Inhibition of human C2BBe1 cell growth in a cell viability assay.

LS-1034 = assay type: functional, cell-based, Homo sapiens
Description: SANGER: Inhibition of human LS-1034 cell growth in a cell viability assay.

OS-RC-2 = assay type: functional, cell-based, Homo sapiens;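 also: growth inhibition of human OS-RC-2 cells, measured by a cell viability assay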
Description: SANGER: Inhibition of human OS-RC-2 cell growth in a cell viability assay.

NOMO-1 = assay type: functional, cell-based, Homo sapiens;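 also: growth inhibition of human NOMO-1 cells measured by a cell viability assay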
Description: SANGER: Inhibition of human NOMO-1 cell growth in a cell viability assay.

SF-268 = assay type: functional, cell-based, Homo sapiens;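 also: growth inhibition of SF-268 cells determined with a cell viability assay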
Description: SANGER: Inhibition of human SF268 cell growth in a cell viability assay.

EW-18 = assay type: functional, cell-based, Homo sapiens; details: read-out: IC50;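 also: growth inhibition of EW-18 cells, read out by a cell viability assay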
Description: SANGER: Inhibition of human EW-18 cell growth in a cell viability assay.

NCI-H1648 = assay type: functional, cell-based, Homo sapiens;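 also: cell viability assay measuring inhibition of NCI-H1648 cell growth, from the Sanger screening data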
Description: SANGER: Inhibition of human NCI-H1648 cell growth in a cell viability assay.

D-263MG = assay type: functional, cell-based, Homo sapiens
Description: SANGER: Inhibition of human D-263MG cell growth in a cell viability assay.

COLO-684 = assay type: functional, cell-based, Homo sapiens
Description: SANGER: Inhibition of human COLO-684 cell growth in a cell viability assay.

GT3TKB = assay type: functional, cell-based, Homo sapiens;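 also: growth inhibition of the cell line, read out with a cell viability assay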
Description: SANGER: Inhibition of human GT3TKB cell growth in a cell viability assay.

AM-38 = assay type: functional, cell-based, Homo sapiens;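 also: growth inhibition of AM-38 cells of human origin, read out by a cell viability assay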
Description: SANGER: Inhibition of human AM-38 cell growth in a cell viability assay.

DSH1 = assay type: functional, cell-based; details: Homo sapiens;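 also: growth inhibition of human DSH1 cells, measured with a cell viability readout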
Description: SANGER: Inhibition of human DSH1 cell growth in a cell viability assay.

CGTH-W-1 = assay type: functional, cell-based, Homo sapiens;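 also: growth inhibition of human CGTH-W-1 cells measured by cell viability assay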
Description: SANGER: Inhibition of human CGTH-W-1 cell growth in a cell viability assay.

EW-16 = assay type: functional, cell-based, Homo sapiens;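 also: growth inhibition of human EW-16 cells, read out as cell viability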
Description: SANGER: Inhibition of human EW-16 cell growth in a cell viability assay.

HL-60 = assay type: functional, cell-based, Homo sapiens;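 also: growth inhibition of human HL-60 cells, read out with a cell viability assay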
Description: SANGER: Inhibition of human HL-60 cell growth in a cell viability assay.

SW982 = assay type: functional, cell-based; details: Homo sapiens;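 also: growth inhibition of SW982 cells, read out with a cell viability assay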
Description: SANGER: Inhibition of human SW982 cell growth in a cell viability assay.

HOP-62 = assay type: functional, cell-based, Homo sapiens;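 also: cell growth inhibition determined with a viability assay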
Description: SANGER: Inhibition of human HOP-62 cell growth in a cell viability assay.

KARPAS-45 = assay type: functional, cell-based, Homo sapiens;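 also: inhibition of cell line growth, read out through a viability assay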
Description: SANGER: Inhibition of human KARPAS-45 cell growth in a cell viability assay.

TGBC1TKB = assay type: functional, cell-based, Homo sapiens;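 also: growth inhibition of TGBC1TKB cells, read out by a cell viability assay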
Description: SANGER: Inhibition of human TGBC1TKB cell growth in a cell viability assay.

KM-H2 = assay type: functional, cell-based, Homo sapiens;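 also: growth inhibition of KM-H2 cells, read out by a cell viability assay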
Description: SANGER: Inhibition of human KM-H2 cell growth in a cell viability assay.

SW 954 = assay type: functional, cell-based, Homo sapiens;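 also: growth inhibition of SW954 human cancer cells, read out as cell viability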
Description: SANGER: Inhibition of human SW954 cell growth in a cell viability assay.

RH-1 = assay type: functional, cell-based, Homo sapiens;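 also: growth inhibition of human RH-1 cells, read out with a cell viability assay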
Description: SANGER: Inhibition of human RH-1 cell growth in a cell viability assay.

KNS-81-FD = assay type: functional, cell-based, Homo sapiens;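 also: growth inhibition of KNS-81-FD cells, read out with a cell viability assay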
Description: SANGER: Inhibition of human KNS-81-FD cell growth in a cell viability assay.

MLMA = assay type: functional, cell-based, Homo sapiens;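 also: growth inhibition of MLMA cells (human), determined through a cell viability readout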
Description: SANGER: Inhibition of human MLMA cell growth in a cell viability assay.

RPMI-8226 = assay type: functional, cell-based, Homo sapiens
Description: SANGER: Inhibition of human RPMI-8226 cell growth in a cell viability assay.

A4-Fuk = assay type: functional, cell-based, Homo sapiens;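 also: growth inhibition of A4-Fuk cells, read out by a cell viability assay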
Description: SANGER: Inhibition of human A4-Fuk cell growth in a cell viability assay.

IST-MEL1 = assay type: functional, cell-based, Homo sapiens;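 also: growth inhibition of the cell line, read out with a cell viability assay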
Description: SANGER: Inhibition of human IST-MEL1 cell growth in a cell viability assay.

SK-N-DZ = assay type: functional, cell-based, Homo sapiens; details: read-out: IC50;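 also: growth inhibition of the cancer cell line, read out through a viability assay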
Description: SANGER: Inhibition of human SK-N-DZ cell growth in a cell viability assay.

KALS-1 = assay type: functional, cell-based, Homo sapiens; details: read-out: IC50;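 also: growth inhibition of KALS-1 cells, determined with a cell viability assay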
Description: SANGER: Inhibition of human KALS-1 cell growth in a cell viability assay.

SK-N-FI = assay type: functional, cell-based, Homo sapiens;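 also: cell viability assay measuring growth inhibition of human SK-N-FI cells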
Description: SANGER: Inhibition of human SK-N-FI cell growth in a cell viability assay.

NCI-H1155 = assay type: functional, cell-based, Homo sapiens;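 also: cell growth inhibition measured by a viability assay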
Description: SANGER: Inhibition of human NCI-H1155 cell growth in a cell viability assay.

Measured: IC50

OC[C@H](Cc1ccccc1)Nc1nc(Oc2ccc3c(c2)CCC3)nc2c1ncn2Cc1ccc(-c2ccccc2)cc1
2830 nM: PSN1; Homo sapiens, PSN1
8.29 µM: EW-16; Homo sapiens, EW-16
2230 nM: SK-N-DZ; Homo sapiens, SK-N-DZ
6.82 µM: DSH1
1380 nM: ES1; Homo sapiens, ES1
5.29 µM: RH-1; Homo sapiens, RH-1
5.86 µM: GOTO; Homo sapiens, GOTO
> 10.2 µM: NB69; Homo sapiens, NB69 | LB2518-MEL | NCI-H226; Homo sapiens, NCI-H226 | SNU-C2B | NCI-H446; Homo sapiens, NCI-H446 | SBC-1; Homo sapiens, SBC-1 | NCI-H1650; Homo sapiens, NCI-H1650 | LS-1034; Homo sapiens, LS-1034 | NOMO-1; Homo sapiens, NOMO-1 | EW-18; Homo sapiens, EW-18 | NCI-H1648; Homo sapiens, NCI-H1648 | GT3TKB; Homo sapiens, GT3TKB | AM-38; Homo sapiens, AM-38 | CGTH-W-1; Homo sapiens, CGTH-W-1 | HL-60; Homo sapiens, HL-60 | SW982 | KARPAS-45; Homo sapiens, KARPAS-45 | KM-H2; Homo sapiens, KM-H2 | SW 954; Homo sapiens, SW 954 | MLMA; Homo sapiens, MLMA | A4-Fuk; Homo sapiens, A4-Fuk | IST-MEL1; Homo sapiens, IST-MEL1 | SK-N-FI; Homo sapiens, SK-N-FI | NCI-H1155; Homo sapiens, NCI-H1155
5.91 µM: IA-LM
3450 nM: HOP-62; Homo sapiens, HOP-62
7.61 µM: LXF-289 cell line
6.65 µM: ES3; Homo sapiens, ES3
8.19 µM: OVCAR-4; Homo sapiens, OVCAR-4
> 10200 nM: Mo; Homo sapiens, Mo | KM12; Homo sapiens, KM12 | KINGS-1; Homo sapiens, KINGS-1 | ES7; Homo sapiens, ES7 | LB2241-RCC; Homo sapiens, LB2241-RCC | C2BBe1; Homo sapiens, C2BBe1 | OS-RC-2; Homo sapiens, OS-RC-2 | SF-268; Homo sapiens, SF-268 | D-263MG; Homo sapiens, D-263MG | COLO-684; Homo sapiens, COLO-684 | TGBC1TKB; Homo sapiens, TGBC1TKB | KNS-81-FD; Homo sapiens, KNS-81-FD | RPMI-8226; Homo sapiens, RPMI-8226 | KALS-1; Homo sapiens, KALS-1

O=S(=O)(O)c1ccc2cc(/N=N/c3cc(S(=O)(=O)O)c4cccnc4c3O)ccc2c1
> 16 µM: GOTO; Homo sapiens, GOTO | OVCAR-4; Homo sapiens, OVCAR-4 | NB69; Homo sapiens, NB69 | LXF-289 cell line | LB2518-MEL | IA-LM | NCI-H226; Homo sapiens, NCI-H226 | SNU-C2B | NCI-H446; Homo sapiens, NCI-H446 | SBC-1; Homo sapiens, SBC-1 | NCI-H1650; Homo sapiens, NCI-H1650 | ES3; Homo sapiens, ES3 | LS-1034; Homo sapiens, LS-1034 | NOMO-1; Homo sapiens, NOMO-1 | EW-18; Homo sapiens, EW-18 | NCI-H1648; Homo sapiens, NCI-H1648 | GT3TKB; Homo sapiens, GT3TKB | AM-38; Homo sapiens, AM-38 | DSH1 | CGTH-W-1; Homo sapiens, CGTH-W-1 | EW-16; Homo sapiens, EW-16 | HL-60; Homo sapiens, HL-60 | SW982 | KARPAS-45; Homo sapiens, KARPAS-45 | KM-H2; Homo sapiens, KM-H2 | SW 954; Homo sapiens, SW 954 | RH-1; Homo sapiens, RH-1 | MLMA; Homo sapiens, MLMA | A4-Fuk; Homo sapiens, A4-Fuk | IST-MEL1; Homo sapiens, IST-MEL1 | SK-N-FI; Homo sapiens, SK-N-FI | NCI-H1155; Homo sapiens, NCI-H1155
> 16000 nM: Mo; Homo sapiens, Mo | KM12; Homo sapiens, KM12 | PSN1; Homo sapiens, PSN1 | KINGS-1; Homo sapiens, KINGS-1 | ES7; Homo sapiens, ES7 | ES1; Homo sapiens, ES1 | LB2241-RCC; Homo sapiens, LB2241-RCC | C2BBe1; Homo sapiens, C2BBe1 | OS-RC-2; Homo sapiens, OS-RC-2 | SF-268; Homo sapiens, SF-268 | D-263MG; Homo sapiens, D-263MG | COLO-684; Homo sapiens, COLO-684 | HOP-62; Homo sapiens, HOP-62 | TGBC1TKB; Homo sapiens, TGBC1TKB | KNS-81-FD; Homo sapiens, KNS-81-FD | RPMI-8226; Homo sapiens, RPMI-8226 | SK-N-DZ; Homo sapiens, SK-N-DZ | KALS-1; Homo sapiens, KALS-1

CC(C)C[C@@H](C=O)NC(=O)[C@H](CC(C)C)NC(=O)[C@H](CC(C)C)NC(=O)OCc1ccccc1 [MG-132] (Cbz-Leu-Leu-Leu-aldehyde)
279 nM and > 1000 nM: C2BBe1; c2bbe1
656 nM and > 1000 nM: SF-268; sf-268
303 nM and > 1000 nM: KNS-81-FD; kns-81-fd
148 nM and 628 nM: KINGS-1; kings-1
907 nM and > 1000 nM: COLO-684; colo-684
> 1000 nM: PSN1; psn1 | ES1; es1 | SK-N-DZ; sk-n-dz
466 nM and > 1000 nM: KALS-1; kals-1
480 nM and > 1000 nM: OS-RC-2; os-rc-2
160 nM and > 1000 nM: D-263MG; d-263mg
> 1000 nM and 423 nM: RPMI-8226; rpmi-8226
897 nM and > 1000 nM: ES7; es7
0.707 µM: SNU-C2B
0.109 µM and > 1 µM: OVCAR-4; ovcar-4
> 1000 nM and 686 nM: TGBC1TKB; tgbc1tkb
518 nM and > 1000 nM: Mo; mo
855 nM and > 1000 nM: KM12; km12
109 nM and > 1000 nM: HOP-62; hop-62
142 nM and 871 nM: LB2241-RCC; lb2241-rcc
> 1 µM: GOTO; Homo sapiens, GOTO | GOTO; goto | NB69; nb69 | IA-LM | NCI-H226; Homo sapiens, NCI-H226 | NCI-H226; nci-h226 | NCI-H446; Homo sapiens, NCI-H446 | NCI-H446; nci-h446 | SBC-1; Homo sapiens, SBC-1 | SBC-1; sbc-1 | NCI-H1650; nci-h1650 | ES3; es3 | LS-1034; ls-1034 | NOMO-1; Homo sapiens, NOMO-1 | NOMO-1; nomo-1 | EW-18; ew-18 | NCI-H1648; Homo sapiens, NCI-H1648 | NCI-H1648; nci-h1648 | GT3TKB; gt3tkb | AM-38; am-38 | CGTH-W-1; cgth-w-1 | EW-16; ew-16 | HL-60; hl-60 | SW982 | KARPAS-45; karpas-45 | KM-H2; Homo sapiens, KM-H2 | KM-H2; km-h2 | SW 954; Homo sapiens, SW 954 | SW 954; sw 954 | RH-1; rh-1 | MLMA; mlma | A4-Fuk; a4-fuk | IST-MEL1; ist-mel1 | SK-N-FI; sk-n-fi | NCI-H1155; nci-h1155
